Experimental data: patent US9527851B2, “Pyrrole six-membered heteroaryl ring derivative, preparation method thereof, and medicinal uses thereof” (Jiangsu Hengrui Medicine Co., Ltd., priority 2011, dated 2016)

Legend:
[1] = target: JAK1 kinase (Homo sapiens (Human), UniProt P23458); test: Assay for inhibiting JAK1 kinase (in vitro kinase assay, HRP anti-phosphotyrosine antibody/TMB absorbance); format: biochemical; settings: 20 μM ATP, 50 minutes at room temperature; read-out: IC50 (JAK1/Bio)
Method: In vitro activity of compounds of the present invention for inhibiting JAK1 kinase was determined by the following method.
IC50 values of test compounds was calculated from the data of the test compounds in inhibiting the activity of JAK1 kinase at different concentrations.

[2] = Pharmacokinetics assay in rats, intragastric administration, plasma by LC/MS/MS; format: in vivo, Sprague-Dawley (SD) rats; settings: both sexes, Sprague-Dawley, rat, plasma, po, SD rats, 10 mg/kg
Method: Rats were used as test animals. […] The pharmacokinetic behavior of the compounds of the present invention was studied and evaluated in rats.
56 Healthy adult Sprague-Dawley (SD) rats, half male and half female, purchased from SINO-BRITSH SIPPR/BK LAB.
The appropriate amount of test compounds were weighed and mixed with 1.0 mL of dimethyl sulfoxide to prepare a 1.0 mg/mL suspension.
After an overnight fast, SD rats were administered intragastrically at a dose of 10.0 mg/kg and an administration volume of 10 mL/kg.
The plasma samples were stored at −20° C. The rats were fed 2 hours after administration.
Content determination of the test compounds in rat plasma after intragastrically administering at different concentrations: 50 μL of rat plasmas taken at various time points after administration were mixed with 50 μL of internal standard solution and 100 μL of methanol and mixed for 3 minutes by a vortexer. The mixture was centrifuged for 10 minutes at 13,500 rpm. 10 μL of the supernatant was taken from the plasma sample and analyzed by LC-MS/MS.
Pharmacokinetic Parameters of the compounds of the present invention were shown as follows: […]

[3] = target: JAK2 kinase (Homo sapiens (Human), UniProt O60674); test: Assay for inhibiting JAK2 kinase (in vitro kinase assay, HRP anti-phosphotyrosine antibody/TMB absorbance); format: biochemical; settings: 20 μM ATP, 50 minutes at room temperature; read-out: IC50 (JAK2/Bio)
Method: In vitro activity of compounds of the present invention for inhibiting JAK2 kinase was determined by the following method.

Chain of JAK2 kinase (O60674 whole entry): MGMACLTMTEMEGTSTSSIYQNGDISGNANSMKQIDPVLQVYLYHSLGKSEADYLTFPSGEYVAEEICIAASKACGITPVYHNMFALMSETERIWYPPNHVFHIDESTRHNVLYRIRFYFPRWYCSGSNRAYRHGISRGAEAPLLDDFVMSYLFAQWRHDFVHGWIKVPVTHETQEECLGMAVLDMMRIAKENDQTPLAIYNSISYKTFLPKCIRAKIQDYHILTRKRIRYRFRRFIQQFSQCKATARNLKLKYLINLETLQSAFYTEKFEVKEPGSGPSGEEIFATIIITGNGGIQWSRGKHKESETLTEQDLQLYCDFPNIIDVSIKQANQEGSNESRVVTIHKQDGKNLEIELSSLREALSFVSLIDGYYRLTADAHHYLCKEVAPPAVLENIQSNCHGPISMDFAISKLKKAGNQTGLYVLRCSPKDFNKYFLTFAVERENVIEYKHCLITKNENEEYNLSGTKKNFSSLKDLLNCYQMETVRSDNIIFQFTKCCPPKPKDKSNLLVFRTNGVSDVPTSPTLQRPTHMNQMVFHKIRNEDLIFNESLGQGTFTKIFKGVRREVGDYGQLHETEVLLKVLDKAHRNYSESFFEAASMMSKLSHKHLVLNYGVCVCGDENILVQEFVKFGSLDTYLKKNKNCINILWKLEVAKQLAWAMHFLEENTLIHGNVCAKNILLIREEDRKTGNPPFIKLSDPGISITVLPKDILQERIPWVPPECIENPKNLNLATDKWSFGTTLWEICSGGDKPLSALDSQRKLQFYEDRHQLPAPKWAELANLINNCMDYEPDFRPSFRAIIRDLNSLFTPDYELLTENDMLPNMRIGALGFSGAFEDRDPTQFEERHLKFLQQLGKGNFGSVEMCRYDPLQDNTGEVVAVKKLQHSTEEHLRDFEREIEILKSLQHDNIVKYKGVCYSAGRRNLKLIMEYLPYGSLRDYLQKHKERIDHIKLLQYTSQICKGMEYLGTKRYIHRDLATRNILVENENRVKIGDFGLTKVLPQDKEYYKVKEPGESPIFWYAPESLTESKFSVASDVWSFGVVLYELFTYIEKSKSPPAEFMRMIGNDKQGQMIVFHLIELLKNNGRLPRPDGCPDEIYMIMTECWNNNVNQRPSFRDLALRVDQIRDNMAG
Chain of JAK1 kinase (P23458 whole entry): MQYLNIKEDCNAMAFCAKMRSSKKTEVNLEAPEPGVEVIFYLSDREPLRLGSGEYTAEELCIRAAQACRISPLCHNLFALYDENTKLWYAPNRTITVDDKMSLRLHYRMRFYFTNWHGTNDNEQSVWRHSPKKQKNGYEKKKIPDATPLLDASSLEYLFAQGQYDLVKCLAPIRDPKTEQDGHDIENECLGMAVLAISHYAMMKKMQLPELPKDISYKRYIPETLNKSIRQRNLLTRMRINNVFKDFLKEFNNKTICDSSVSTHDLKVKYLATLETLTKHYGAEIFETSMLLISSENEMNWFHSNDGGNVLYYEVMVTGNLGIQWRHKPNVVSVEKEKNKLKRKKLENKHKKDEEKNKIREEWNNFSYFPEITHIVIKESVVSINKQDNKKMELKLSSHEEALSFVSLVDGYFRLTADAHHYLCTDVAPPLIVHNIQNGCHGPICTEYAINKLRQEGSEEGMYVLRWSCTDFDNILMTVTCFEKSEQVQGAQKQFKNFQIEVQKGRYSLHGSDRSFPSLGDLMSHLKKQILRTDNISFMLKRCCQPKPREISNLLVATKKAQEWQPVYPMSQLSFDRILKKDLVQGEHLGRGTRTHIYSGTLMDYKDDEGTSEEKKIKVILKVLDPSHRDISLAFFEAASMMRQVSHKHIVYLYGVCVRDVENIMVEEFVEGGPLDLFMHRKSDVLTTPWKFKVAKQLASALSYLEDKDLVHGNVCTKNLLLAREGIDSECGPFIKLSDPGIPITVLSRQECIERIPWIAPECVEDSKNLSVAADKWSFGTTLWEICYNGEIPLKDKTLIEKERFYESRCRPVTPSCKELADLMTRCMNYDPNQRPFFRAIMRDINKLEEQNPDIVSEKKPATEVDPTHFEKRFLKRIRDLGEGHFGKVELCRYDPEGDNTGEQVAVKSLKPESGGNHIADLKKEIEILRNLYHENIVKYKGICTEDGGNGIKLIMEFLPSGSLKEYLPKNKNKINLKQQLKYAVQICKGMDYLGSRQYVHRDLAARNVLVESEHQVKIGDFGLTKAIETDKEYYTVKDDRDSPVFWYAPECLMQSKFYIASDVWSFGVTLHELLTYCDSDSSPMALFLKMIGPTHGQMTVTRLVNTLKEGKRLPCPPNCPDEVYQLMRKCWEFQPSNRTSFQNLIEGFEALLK

Row | SMILES | IC50 [1] [nM] | IC50 [3] [nM] | other results
1 | C[C@H](O)C(=O)N1C[C@H]2C[C@H](N(C)c3ncnc4[nH]ccc34)C[C@H]2C1 [Example 17, (S)-2-Hydroxy-1-((3aR,5R,6aS)-5-(methyl(7H-pyrrolo[2,3-d]pyrimidin-4-yl)amino)hexahydrocyclopenta[c]pyrrol-2(1H)-yl)propan-1-one] | 0.2 |  | Vd/F ([2]; read-out: Apparent Distribution Volume Vz/F): 6.2 ± 1.69 L/kg; AUC ([2]; read-out: Area Under Curve AUC): 4760 ± 1680 ng·h/mL; CL/F ([2]; read-out: Clearance CL/F): 38.7 ± 13.7 mL/min/kg; half-life ([2]; read-out: Half-Life t½ (converted)): 2.03 ± 0.82 h; Cmax ([2]; read-out: Plasma Conc. Cmax): 1480 ± 177 ng/mL
2 | COC(=O)CN1C[C@H]2C[C@H](N(C)c3ncnc4[nH]ccc34)C[C@H]2C1 [Example 24, methyl 2-((3aR,5S,6aS)-5-(methyl(7H-pyrrolo[2,3-d]pyrimidin-4-yl)amino)hexahydrocyclopenta[c]pyrrol-2(1H)-yl)acetate] | 13 | 77 | 
3 | COC(=O)N1CC[C@H]2CC(N(C)c3ncnc4[nH]ccc34)C[C@H]2C1 (stereo partly drawn) [Example 36, (4aS,7aR)-Methyl 6-(methyl(7H-pyrrolo[2,3-d]pyrimidin-4-yl)amino) hexahydro-1H-cyclopenta[c]pyridine-2(3H)-carboxylate] | 25 | 75 | 
4 | CN(c1ncnc2[nH]ccc12)C1C[C@@H]2CCN(C(=O)CO)C[C@@H]2C1 (stereo partly drawn) [Example 37, 2-Hydroxy-1-((4aS,7aR)-6-(methyl(7H-pyrrolo[2,3-d]pyrimidin-4-yl)amino)hexahydro-1H-cyclopenta[c]pyridin-2(3H,4H,4aH,5H,6H,7H,7aH)-yl)ethanone] | 50 | 72 | 
5 | COc1nsc(NC(=O)N2CC[C@H]3CC(N(C)c4ncnc5[nH]ccc45)C[C@H]3C2)n1 (stereo partly drawn) [Example 38, (4aS,7aR)—N-(3-Methoxy-1,2,4-thiadiazol-5-yl)-6-(methyl(7H-pyrrolo[2,3-d]pyrimidin-4-yl)amino)hexahydro-1H-cyclopenta[c]pyridine-2(3H)-carboxamide] |  | 7 | 
6 | CN(c1ncnc2[nH]ccc12)C1C[C@@H]2CCN(C(=O)CC#N)C[C@@H]2C1 (stereo partly drawn) [Example 39, 3-((4aS,7aR)-6-(Methyl(7H-pyrrolo[2,3-d]pyrimidin-4-yl)amino)hexahydro-1H-cyclopenta[c]pyridin-2(3H,4H,4aH,5H,6H,7H,7aH)-yl)-3-oxopropanenitrile] | 34 | 113 | 
7 | Cc1noc(N2C[C@H]3C[C@H](N(C)c4ncnc5[nH]ccc45)C[C@H]3C2)n1 [Example 61, N-methyl-N-((3aR,5S,6aS)-2-(3-methyl-1,2,4-oxadiazol-5-yl)octahydrocyclopenta[c]pyrrol-5-yl)-7H-pyrrolo[2,3-d]pyrimidin-4-amine] | 128 | 25 | 
8 | Cc1nsc(N2C[C@H]3C[C@H](N(C)c4ncnc5[nH]ccc45)C[C@H]3C2)n1 [Example 65, N-methyl-N-((3aR,5S,6aS)-2-(3-methyl-1,2,4-thiadiazol-5-yl)octahydrocyclopenta[c]pyrrol-5-yl)-7H-pyrrolo[2,3-d]pyrimidin-4-amine] |  | 179 | 
9 | CN(c1ncnc2[nH]ccc12)[C@@H]1C[C@@H]2CN(CCC#N)C[C@@H]2C1 [Example 68, 3-((3aR,5R,6aS)-5-(methyl(7H-pyrrolo[2,3-d]pyrimidin-4-yl)amino)hexahydrocyclopenta[c]pyrrol-2(1H)-yl)propanenitrile] | 17 | 18 | 
10 | CN(c1ncnc2[nH]ccc12)[C@@H]1C[C@@H]2CN(C(=O)Nc3nncs3)C[C@@H]2C1 [Example 73, (3aR,5R,6aS)-5-(methyl(7H-pyrrolo[2,3-d]pyrimidin-4-yl)amino)-N-(1,3,4-thiadiazol-2-yl)hexahydrocyclopenta[c]pyrrole-2(1H)-carboxamide] | 75 | 47 | 
11 | COc1nsc(NC(=O)N2C[C@H]3C[C@@H](N(C)c4ncnc5[nH]ccc45)C[C@H]3C2)n1 [Example 74, (3aR,5R,6aS)-N-(3-methoxy-1,2,4-thiadiazol-5-yl)-5-(methyl(7H-pyrrolo[2,3-d]pyrimidin-4-yl)amino)hexahydrocyclopenta[c]pyrrole-2(1H)-carboxamide] | 4 | 56 | 
12 | CN(c1ncnc2[nH]ccc12)[C@@H]1C[C@@H]2CN(C(=O)CCC#N)C[C@@H]2C1 [Example 75, 4-((3aR,5R,6aS)-5-(methyl(7H-pyrrolo[2,3-d]pyrimidin-4-yl)amino)hexahydrocyclopenta[c]pyrrol-2(1H)-yl)-4-oxobutanenitrile] | 46 | 156 | 
13 | CN(c1ncnc2[nH]ccc12)[C@H]1C[C@@H]2CN(C(=O)C(C)(C)O)C[C@@H]2C1 [Example 83, 2-hydroxy-2-methyl-1-((3aR,5S,6aS)-5-(methyl(7H-pyrrolo[2,3-d]pyrimidin-4-yl)amino)hexahydrocyclopenta[c]pyrrol-2(1H)-yl)propan-1-one] | 50 |  | 
14 | CN(c1ncnc2[nH]ccc12)[C@H]1C[C@@H]2CN(C(=O)Cc3nn[nH]n3)C[C@@H]2C1 [Example 85, 1-((3aR,5S,6aS)-5-(methyl(7H-pyrrolo[2,3-d]pyrimidin-4-yl)amino)hexahydrocyclopenta[c]pyrrol-2(1H)-yl)-2-(2H-tetrazol-5-yl)ethanone] | 80 |  | 
15 | CN(c1ncnc2[nH]ccc12)[C@H]1C[C@@H]2CN(C(=O)Nc3nncs3)C[C@@H]2C1 [Example 86, (3aR,5S,6aS)-5-(methyl(7H-pyrrolo[2,3-d]pyrimidin-4-yl)amino)-N-(1,3,4-thiadiazol-2-yl)hexahydrocyclopenta[c]pyrrole-2(1H)-carboxamide] | 10 | 52 | 
16 | CC[C@H](O)C(=O)N1C[C@H]2C[C@H](N(C)c3ncnc4[nH]ccc34)C[C@H]2C1 [Example 93, (S)-2-hydroxy-1-((3aR,5R,6aS)-5-(methyl(7H-pyrrolo[2,3-d]pyrimidin-4-yl)amino)hexahydrocyclopenta[c]pyrrol-2(1H)-yl)butan-1-one] | 70 |  | 
17 | CN(c1ncnc2[nH]ccc12)[C@H]1C[C@@H]2CN(C(=O)Nc3ccn(C)n3)C[C@@H]2C1 [Example 104, (3aR,5S,6aS)-5-(methyl(7H-pyrrolo[2,3-d]pyrimidin-4-yl)amino)-N-(1-methyl-1H-pyrazol-3-yl)hexahydrocyclopenta[c]pyrrole-2(1H)-carboxamide] | 109 |  | 
18 | COc1cncc(NC(=O)N2C[C@H]3C[C@H](N(C)c4ncnc5[nH]ccc45)C[C@H]3C2)c1 [Example 109, (3aR,5S,6aS)-N-(5-methoxypyridin-3-yl)-5-(methyl(7H-pyrrolo[2,3-d]pyrimidin-4-yl)amino)hexahydrocyclopenta[c]pyrrole-2(1H)-carboxamide] | 15 |  | 
19 | Cc1cnc(NC(=O)N2C[C@H]3C[C@H](N(C)c4ncnc5[nH]ccc45)C[C@H]3C2)s1 [Example 117, (3aR,5S,6aS)-5-(methyl(7H-pyrrolo[2,3-d]pyrimidin-4-yl)amino)-N-(5-methylthiazol-2-yl)hexahydrocyclopenta[c]pyrrole-2(1H)-carboxamide] | 95 |  | 
20 | Cc1cc(NC(=O)N2C[C@H]3C[C@H](N(C)c4ncnc5[nH]ccc45)C[C@H]3C2)sn1 [Example 119, (3aR,5S,6aS)-5-(methyl(7H-pyrrolo[2,3-d]pyrimidin-4-yl)amino)-N-(3-methylisothiazol-5-yl)hexahydrocyclopenta[c]pyrrole-2(1H)-carboxamide] | 48 |  | 
21 | Cc1ncc(NC(=O)N2C[C@H]3C[C@H](N(C)c4ncnc5[nH]ccc45)C[C@H]3C2)s1 [Example 124, (3aR,5S,6aS)-5-(methyl(7H-pyrrolo[2,3-d]pyrimidin-4-yl)amino)-N-(2-methylthiazol-5-yl)hexahydrocyclopenta[c]pyrrole-2(1H)-carboxamide] | 119 |  | 
22 | COC(=O)CN1C[C@@H]2[C@H](C1)[C@H]2CN(C)c1ncnc2[nH]ccc12 [Example 134, methyl 2-((1R,5S,6R)-6-((methyl(7H-pyrrolo[2,3-d]pyrimidin-4-yl)amino)methyl)-3-azabicyclo[3.1.0]hexan-3-yl)acetate] |  | 60 | 
23 | CN(C[C@H]1[C@@H]2CN(C(=O)C3CC3)C[C@@H]21)c1ncnc2[nH]ccc12 [Example 135, cyclopropyl((1R,5S,6S)-6-((methyl(7H-pyrrolo[2,3-d]pyrimidin-4-yl)amino)methyl)-3-azabicyclo[3.1.0]hexan-3-yl)methanone] |  | 2 | 
24 | CN(c1ncnc2[nH]ccc12)[C@H]1C[C@@H]2CN(C(=O)Nc3nc(O)ns3)C[C@@H]2C1 [Example 156, (3aR,5S,6aS)-N-(3-hydroxy-1,2,4-thiadiazol-5-yl)-5-(methyl(7H-pyrrolo[2,3-d]pyrimidin-4-yl)amino)hexahydrocyclopenta[c]pyrrole-2(1H)-carboxamide] | 171 |  | 
